In PubChem BioAssay (NCI):
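Compound exposure: 48 hours, 5 concentrations, 96-well plates. At the GI50, growth is halved. The concentration for full growth arrest is given as TGI.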

Experiments:
Assay in all cases: NCI-60 cell line screen, 48 h
A549 NSCLC = system: A549 NSCLC
EKVX NSCLC = system: EKVX NSCLC
HCT-116 colon = system: HCT-116 colon
HT29 colon = system: HT29 colon
OVCAR-5 ovarian = system: OVCAR-5 ovarian
RPMI-8226 leukemia = system: RPMI-8226 leukemia
SK-OV-3 ovarian = system: SK-OV-3 ovarian
SN12C renal = system: SN12C renal
U251 CNS = system: U251 CNS
K-562 leukemia = system: K-562 leukemia

| Compound | TGI (A549 NSCLC) [µM] | TGI (EKVX NSCLC) [µM] | TGI (HCT-116 colon) [µM] | TGI (HT29 colon) [µM] | TGI (OVCAR-5 ovarian) [µM] | TGI (RPMI-8226 leukemia) [µM] | TGI (SK-OV-3 ovarian) [µM] | TGI (SN12C renal) [µM] | TGI (U251 CNS) [µM] | TGI (K-562 leukemia) [µM] | GI50 (A549 NSCLC) [µM] | GI50 (HCT-116 colon) [µM] | GI50 (HT29 colon) [µM] | GI50 (K-562 leukemia) [µM] | GI50 (OVCAR-5 ovarian) [µM] | GI50 (RPMI-8226 leukemia) [µM] | GI50 (SK-OV-3 ovarian) [µM] | GI50 (SN12C renal) [µM] | GI50 (U251 CNS) [µM] |
| --- | --- | --- | --- | --- | --- | --- | --- | --- | --- | --- | --- | --- | --- | --- | --- | --- | --- | --- | --- |
| COc1cc(C(=O)O)c([N+](=O)[O-])c(OC)c1OC | > 100 | > 100 | > 100 | > 100 | > 100 | > 100 | > 100 | > 100 | > 100 |  |  |  |  |  |  |  |  |  |  |
| Cn1nc(-c2ccccc2NC(=O)C(F)(F)F)c(=O)n(C)c1=S | > 100 | 86.5 | > 100 | 53.8 | > 100 |  | > 100 | > 100 | > 100 | 66.8 |  |  |  |  |  |  |  |  |  |
| Cn1cc(-c2ccc(=O)n(Cc3cccc(-c4ncc(OCCN5CCOCC5)cn4)c3)n2)cn1 | > 100 |  | > 100 | > 100 | > 100 | > 100 | > 100 | > 100 | > 100 | > 100 | 71.7 | 56.5 | > 100 | 99.3 | > 100 | 34 | > 100 | > 69.4 | 92.1 |
| C/C(=N\NC(=S)Nc1ccc(C(=O)O)cc1)c1ccccn1 | > 100 | > 100 | 51.4 | > 100 | 60.7 | 76.6 |  | 35.8 | 58.3 | > 100 |  |  |  |  |  |  |  |  |  |
| Cc1cc2c(C)c3cc(C)c(N)cc3nc2cc1N | 3.16 |  | 6.14 | 2.09 | 5.34 | 5.92 | 8.39 | 9.71 | 5.72 | 4.96 | 0.636 | 0.383 | 0.373 | 0.548 | 0.884 | 1.33 | 0.963 | 0.987 | 0.648 |
| Cn1ncc2cc3c(Nc4ccc(Cl)cc4)cccc3nc21 | 85.3 | 88 |  |  |  | 34.2 | > 100 | 70.8 |  | > 100 |  |  |  |  |  |  |  |  |  |
| CCOC(=O)c1cccc(=O)c(C(=O)OCC)c1 | > 100 | > 100 | > 100 | > 100 | > 100 | > 100 | > 100 |  | > 100 | > 100 |  |  |  |  |  |  |  |  |  |
| COc1cccc(NC(=O)c2sc3nc4c(cc3c2N)CCCC4)c1 | > 100 |  | > 100 |  | > 100 | 78.3 | 29.4 | > 100 | 19.2 |  | 0.58 | 0.475 |  |  | 3.31 | 0.396 | 0.473 | 3.98 | 0.607 |
| COc1ccc(-c2oc3cc(O)c(OC)c(O)c3c(=O)c2OC2OC(CO)C(O)C(O)C2O)cc1 (configuration not stated) | > 100 | > 100 | > 100 | > 100 |  | > 100 | > 100 | > 100 | > 100 | > 100 |  |  |  |  |  |  |  |  |  |
| N#Cc1ccccc1NC(=O)C(=O)C(C(=O)c1ccccc1-c1ccccc1)C1OC(=O)c2ccccc21 (configuration not stated) | > 100 | 36 | 23 | 97.3 | 33 | 79.7 | > 100 |  | 25.6 | > 100 |  |  |  |  |  |  |  |  |  |
| CC1(C)N=C(N)N=C(N)N1c1cccc(/C=C/C=C/c2cccc([N+](=O)[O-])c2)c1 | 24 |  | 30.4 | 14.7 | 42.5 | 16.3 | > 100 | 20.1 | 13.6 | 19.6 | 3.9 | 3.16 | 1.59 | 3.29 | 10.5 | 1.31 | 32.1 | 5.3 | 0.801 |
| CCOC(=O)Cc1c(Cc2[nH]c(C(=O)OCc3ccccc3)c(CC(=O)OCC)c2CC(=O)OCC)[nH]c(C(=O)OCc2ccccc2)c1CC(=O)OCC | > 100 |  | > 100 | > 100 |  | > 100 | > 100 | > 100 | > 100 | > 100 |  |  |  |  |  |  |  |  |  |
| Cc1ccc(S(=O)(=O)N2CCCSCCSCCCSCC2)cc1 | > 100 | > 100 | > 100 | > 100 | > 100 |  | > 100 | > 100 | > 100 | > 100 |  |  |  |  |  |  |  |  |  |
| O=C1C2CC(Cl)C(SSC3CC4C(=O)N(SC(Cl)(Cl)C(Cl)Cl)C(=O)C4CC3Cl)CC2C(=O)N1SC(Cl)(Cl)C(Cl)Cl (configuration not stated) | 28.3 | 15.5 | 7.38 |  | 66.3 | 5.35 | 8.53 | 5.24 | 3.75 | 5.01 |  |  |  |  |  |  |  |  |  |
| Cc1ccc(S(=O)(=O)N/N=C/C(Br)=C(/Br)C(=O)O)cc1 | 50.2 | 34 |  | 26.8 | > 55.5 | 6.18 | 34.8 | 25.6 | 18.8 |  |  |  |  |  |  |  |  |  |  |
| COc1c(OC(C)=O)ccc(/C=C2\N=C(C)OC2=O)c1[N+](=O)[O-] | > 100 |  | > 100 | > 100 | > 100 | > 100 | > 100 | > 100 | > 100 | > 100 |  |  |  |  |  |  |  |  |  |
| COC(=O)Nc1nc2ccc(C(=O)c3ccc[nH]3)cc2[nH]1 | > 100 | > 100 | > 100 | > 100 | > 100 | > 100 | > 63 | > 100 | > 100 |  |  |  |  |  |  |  |  |  |  |
| COc1cc(O)c(C(=O)/C=C/c2ccccc2)c(OC)c1 | 30 | 22.4 | 20.1 | 22.4 | > 100 | 10.3 | 25.6 | 11.6 | 21.3 |  |  |  |  |  |  |  |  |  |  |
| O/N=C1/C(=C/c2ccc(F)cc2)CCCC1C(NO)c1ccc(F)cc1 (configuration not stated) | > 100 | > 100 | > 100 | 45.2 |  | 49.8 | > 100 | 43.6 | > 100 | > 100 |  |  |  |  |  |  |  |  |  |
| CC(C)=CC(=O)CC(=O)C(=O)Nc1ccc(C)c(C)c1 | > 100 | > 100 | > 100 | > 100 |  | > 100 | > 100 | > 100 | > 100 | > 100 |  |  |  |  |  |  |  |  |  |
